The source of these data is US20250283073A1 (ORNA THERAPEUTICS, INC., priority 2021, published 2025).

Like-named read-outs stand apart in the source and are kept apart here.

For data set [1] the following is noted: cited from earlier work.
Data set [2] is described as follows: RNA encapsulation / entrapment by Ribogreen assay. Type of data set: physicochemical. Conditions: LNPs with circular RNA, named by ionizable lipid. How it is done:
A QUANT-ITT- RIBOGREEN® RNA assay (Invitrogen Corporation Carlsbad, CA) can be used to evaluate the encapsulation of circRNA by the nanoparticle composition. The samples are diluted to a concentration of approximately 5 μg/mL or 1 μg/mL in a TE buffer solution (10 mM Tris-HCl, 1 mM EDTA, pH 7.5). 50 μL of the diluted samples are transferred to a polystyrene 96 well plate and either 50 μL of TE buffer or 50 μL of a 2-4% Triton X-100 solution is added to the wells. The plate is incubated at a temperature of 37° C. for 15 minutes. The RIBOGREEN® reagent is diluted 1:100 or 1:200 in TE buffer, and 100 μL of this solution is added to each well. The fluorescence intensity can be measured using a fluorescence plate reader (Wallac Victor 1420 Multilabel Counter; Perkin Elmer, Waltham, MA) at an excitation wavelength of, for example, about 480 nm and an emission wavelength of, for example, about 520 nm. The fluorescence values of the reagent blank are subtracted from that of each of the samples and the percentage of free circRNA is determined by dividing the fluorescence intensity of the intact sample (without addition of Triton X-100) by the fluorescence value of the disrupted sample (caused by the addition of Triton X-100). C.
For transfer vehicle compositions including RNA, a QUANT-IT- RIBOGREEN® RNA assay (Invitrogen Corporation Carlsbad, CA) can be used to evaluate the encapsulation of RNA by the transfer vehicle composition. […] The fluorescence intensity can be measured using a fluorescence plate reader (Wallac Victor 1420 Multilablel Counter; Perkin Elmer, Waltham, MA) at an excitation wavelength of, for example, about 480 nm and an emission wavelength of, for example, about 520 nm. The fluorescence values of the reagent blank are subtracted from that of each of the samples and the percentage of free RNA is determined by dividing the fluorescence intensity of the intact sample (without addition of Triton X-100) by the fluorescence value of the disrupted sample (caused by the addition of Triton X-100). […]

Data set [3] is described as follows: LNP particle size (Z-average) and polydispersity index by dynamic light scattering. Type of data set: physicochemical. Conditions: LNPs with circular RNA, named by ionizable lipid; for Z-Average(nm): in PBS pH 7.4. On the procedure: The microfluidic chamber is cleaned with ethanol and neMYSIS syringe pumps are prepared by loading a syringe with the RNA solution and another syringe with the ethanolic lipid. Both syringes are loaded and under the control of neMESYS software. The solutions are then applied to the mixing chip at an aqueous to organic phase ratio of 2 and a total flow rate of 22 ml/min (14.67 ml/min for RNA and 7.33 ml/min for the lipid solution. Both pumps are started synchronously. The mixer solution that flowed from the microfluidic chip is collected in 4×1 ml fractions with the first fraction being discarded as waste. The remaining solution containing the circRNA-transfer vehicles is exchanged by using G-25 mini desalting columns to 10 mM Tris-HCl, 1 mM EDTA, at pH 7.5, as described above. Following buffer exchange, the materials are characterized for size, and RNA entrapment through DLS analysis and Ribogreen assays, respectively.
(§1) Dialyzed LNPs were filtered using 0.2 μm filter. Prior to in vivo dosing, LNPs were diluted in PBS. LNP sizes were determined by dynamic light scattering. A cuvette with 1 mL of 20 μg/mL LNPs in PBS (pH 7.4) was measured for Z-average using the Malvern Panalytical Zetasizer Pro. The Z-average and polydispersity index were recorded.
as §1

Data set [4] is described as follows: In vivo FLuc expression by IVIS (whole body and organs) after LNP-circRNA dosing. More on the design: species or system CD-1 or c57BL/6J mice. Particulars: mice, 0.5 mg/kg luciferase circRNA LNP i.v., named by ionizable lipid. On the procedure: Circular or linear RNA encoding FLuc was generated and loaded into transfer vehicles with the following formulation: 50% ionizable Lipid 10b-15 represented by
10% DSPC, 1.5% PEG-DMG, 38.5% cholesterol. CD-1 mice were dosed at 0.2 mg/kg and luminescence was measured at 6 hours (live IVIS) and 24 hours (live IVIS and ex vivo IVIS). Total Flux (photons/second over a region of interest) of the liver, spleen, kidney, lung, and heart was measured (FIGS. 25 and 26).
Female CD-1 or female c57BL/6J mice ranging from 22-25 g were dosed at 0.5 mg/kg RNA intravenously. Six hours after injection, mice were injected intraperitoneally with 200 μL of D-luciferin at 15 mg/mL concentration. 5 minutes after injection, mice were anesthetized using isoflurane, and placed inside the IVIS Spectrum In Vivo Imaging System (Perkin Elmer) with dorsal side up. Post 10 minutes injection, mice were scanned for luminescence. Mice were euthanized and organs were extracted within 25 minutes of luciferin injection to scan for luminescence in liver, spleen, kidneys, lungs, and heart. Images (FIGS. 33A-B, 34A-B, 35A-B) were analyzed using Living Images (Perkin Elmer) software. Regions of interest were drawn to obtain flux and average radiance and analyzed for biodistribution of protein expression (FIG. 32A-B).

For another data set, the system named is splenic immune cells. As to the kind of experiment: Cre circRNA LNP transfection of splenic immune cells in Ai9 Cre reporter mice (tdTomato). Type of data set: in vivo. Conditions: 0.5 mg/kg Cre circRNA LNP i.v., 48 hr, named by ionizable lipid. On the procedure:
Circular RNAs encoding Cre recombinase (Cre) are encapsulated into lipid nanoparticles as previously described. Female, 6-8 week old B6.Cg-Gt(ROSA)26Sortm9(CAG-tdTomato)Hze/J (Ai9) mice were dosed with lipid nanoparticles at 0.5 mg/kg RNA intravenously. Fluorescent tdTomato protein was transcribed and translated in Ai9 mice upon Cre recombination, meaning circular RNAs have been delivered to and translated in tdTomato+ cells. After 48 hr, mice were euthanized and the spleens were harvested, processed into a single cell suspension, and stained with various fluorophore-conjugated antibodies for immunophenotyping via flow cytometry.
Ai9 mice (B6.Cg-Gt(ROSA)26Sortm9(CAG-tdTomato)Hze/J, female, 6-8 weeks, n=3 per group) were injected i.v. with 0.5 mg/kg Cre circRNA LNPs or PBS. Ai9 mice transcribe and translate the fluorescent reporter tdTomato upon Cre recombination; meaning cells which are tdTomato+ have successfully been transfected with Cre circRNA. […] Flow cytometry was performed using an Attune Nxt Flow Cytometer (Thermo).

In data set [5] the test system is 1C1C7 cells. As to the kind of experiment: Anti-murine CD19 CAR expression in lipotransfected 1C1C7 cells. Particulars: 24 hours after lipotransfection, circRNA named by IRES source virus. The class given is cell-based. How it is done: After 24 hours, 1C1C7 cells were incubated with His-tagged recombinant murine CD19 (Sino Biological) protein, then stained with a secondary anti-His antibody. Afterwards, the cells were analyzed via flow cytometry.

Data set [6] deals with 1C1C7 cells. Kind of data set: Gaussia luciferase expression and stability by IRES in 1C1C7 cells. Particulars: 1C1C7, 24 and 48 hours.

For `CCCCCCCCC(CCCCCCCC)COC(=O)CCCCN(CCCCO)CCCCC(=O)OCC(CCCCCCCC)CCCCCCCC` [III-15], in data set [1] (Table 3, Representative Compounds of Formula (III)), the pKa was 6.14.
For the molecule `CCCCCCCCCCCCCCSCCOC(=O)CCN(CCCn1ccnc1)CCC(=O)OCCSCCCCCCCCCCCCCC` [Lipid 93-S14, bis(2-(tetradecylthio)ethyl) 3,3′-((3-(1H-imidazol-1-yl)propyl)azanediyl)dipropionate], the “RNA Entrapment(%)” value in data set [2] amounted to 95%. Moreover, in data set [3], the PDI came out at 0.04 and the “Z-Average(nm)” value is 74 nm.
For the molecule `CCCCCCCCCOC(=O)CCCCCCCN(CCO)CCCCCCCC(=O)OC(CCCCCCCC)CCCCCCCC` [Lipid 10b-15], in data set [4], the “ex vivo IVIS tissue expression and spleen to liver ratio” value is given as “maintaining the desired spleen to liver ratios”. In the data set with splenic immune cells, the “splenic immune cells expressing tdTomato” value is listed as “effective at delivering circular RNAs to many splenic immune cell subsets”.
For the molecule `CCCCCCCCCCCCCCSCCOC(=O)CCN(CCCn1ccnc1C)CCC(=O)OCCSCCCCCCCCCCCCCC` [Lipid 22-S14, bis(2-(tetradecylthio)ethyl) 3,3′-((3-(2-methyl-1H-imidazol-1-yl)propyl)azanediyl)dipropionate], the “RNA Entrapment(%)” value in data set [2] is 97%. Also, in data set [3], the PDI amounted to 0.05 and the “Z-Average(nm)” value stood at 64 nm.
With `CCCCCCCCC(CCCCCC)C(=O)OCCCCCCN(CCCCCCOC(=O)C(CCCCCC)CCCCCCCC)CCCn1ccnc1` (centres unmarked) [Lipid 10a-26, ((3-(1H-imidazol-1-yl)propyl)azanediyl)bis(hexane-6,1-diyl) bis(2-hexyldecanoate)], the “RNA Entrapment(%)” value in data set [2] is on record as 96%. Also, in data set [3], the PDI is 0.04 and the “Z-Average(nm)” value stood at 84 nm. Moreover, the “whole-body total flux (IVIS)” value in data set [4] (6 hours) is recorded as “increased whole-body total flux”. In addition, the “ex vivo IVIS tissue expression and spleen to liver ratio” value in data set [4] is “increased overall expression”.
Take `CCCCCCCCOC(=O)CCCCCCCCCN(CCCCCCCCCC(=O)OCCCCCCCC)CCN(C)C` [Lipid I-13]: the pKa in data set [1] (Table 1, Representative Lipids of Formula I) was 6.15.

B1: caprine kobuvirus: "IRES sourced from the indicated virus" in circular RNA constructs "encoding anti-murine CD19 CAR" (nucleic acid)
DNA: GTGGCCACGCCCGGGCCACCGATACTTCCCTTCACTCCTTCGGGACTGTTGGGGAGGAACACAACAGGGCTCCCCTGTTTTCCCATTCCTTCCCCCTTTTCCCAACCCCAACCGCCGTATCTGGTGGCGGCAAGACACACGGGTCTTTCCCTCTAAAGCACAATTGTGTGTGTGTCCCAGGTCCTCCTGCGTACGGTGCGGGAGTGCTCCCACCCAACTGTTGTAAGCCTGTCCAACGCGTCGTCCTGGCAAGACTATGACGTCGCATGTTCCGCTGCGGATGCCGACCGGGTAACCGGTTCCCCAGTGTGTGTAGTGCGATCTTCCAGGTCCTCCTGGTTGGCGTTGTCCAGAAACTGCTTCAGGTAAGTGGGGTGTGCCCAATCCCTACAAAGGTTGATTCTTTCACCACCTTAGGAATGCTCCGGAGGTACCCCAGCAACAGCTGGGATCTGACCGGAGGCTAATTGTCTACGGGTGGTGTTTCCTTTTTCTTTTCACACAACTCTACTGCGTACAACTCACTGACTATCCACTTGCTCTGTCACG
modifications: Description of Unknown: CK1.4; Caprine Kobuvirus variant sequence
As for B1, the “anti-mouse CD19 CAR expression” value in the data set with 1C1C7 cells [5] is “capable of driving expression of an anti-mouse CD19 CAR”.

B2: CK-739 IRES: "the IRES having the sequence of SEQ ID NO: 3282"; "had a long scanning tract" (nucleic acid)
DNA: B1 DNA
modifications: Description of Unknown: CK1.4; Caprine Kobuvirus variant sequence
With B2, in the data set on 1C1C7 cells [6], the “expression after terminal or scanning tract deletions of the IRES” value is recorded as “relatively unaffected by deletions in the scanning tract”.
